Consider 2 molecules from patent USRE41253E1, “Antineoplastic combinations” (Wyeth, priority 2001, dated 2010).

As a reminder, the IC50 is the midpoint of a concentration-inhibition curve. Broadly, the inhibition is the drop in the measured response relative to a control, in per cent.

The assay has as its system HCT 116 colon adenocarcinoma cells. The assay is described as follows: Cell Proliferation Procedure (SRB, three days). The note with it: for IC50: growth for 3 days, SRB, single agent, read-out: IC50 value, drug alone. Format: cell-based. As for the experimental part: Cell Proliferation Procedure—HCT 116 colon adenocarcinoma cells were maintained in RPMI 1640 medium (Life Technologies, Inc., Gaithersburg, Md.) supplemented with 10% fetal bovine serum (FBS, Life Technologies) and 50 μg/ml gentamicin (Life Technologies) under 7% CO2 at 37° C. Cells were plated in 96-well microtiter dishes (6000 cells/well) in 200 μl RPMI 1640 medium containing 5% FBS and 50 μg/ml gentamicin and incubated overnight at 37° C. Compound dilutions were prepared in the same medium, at 5× final concentration, and 50 μl of the drug dilution was added to the cell-containing wells. For studies involving combinations of two drugs, serial dilutions of one compound were prepared in the presence of a fixed dose of a second compound. Alternatively, a checkerboard dilution series was employed. Cells were cultured for three days in the presence of the drugs. Untreated cells were included as controls. The percentage of surviving cells was determined using sulforhodamine B (SRB, Sigma-Aldrich, St Louis, Mo.), a protein binding dye. Cellular protein was precipitated in each well by the addition of 50 μl of 50% cold trichloroacetic acid. After 1 hour, the plates were washed extensively in water and dried. SRB dye reagent (0.4% SRB in 1% acetic acid, 80 μl per well) was added and plates were kept at room temperature for ten minutes. Plates were then washed thoroughly in 1% acetic acid and dried. Cell-associated dye was dissolved in 10 mM Tris (150 μl) and the absorbance was read at 540 nm in a microtiter plate reader. The concentration of compound that caused a fixed percentage inhibition of growth was determined by plotting cell survival (relative to untreated cells) against the compound dose.

Where [1] appears, read: Homo sapiens, HCT-116, 72 h, HCT116 cells.

As for `CCOc1cc2ncc(C#N)c(Nc3ccc(F)c(Cl)c3)c2cc1NC(=O)C=CCN(C)C` [EKB-569, 4-dimethylamino-but-2-enoic acid [4-(3-chloro-4-fluoro-phenylamino)-3-cyano-7-ethoxy-quinolin-6-yl]-amide], the IC50 under setting [1] is 0.31 µg/mL.
For the molecule `CO[C@H]1C[C@@H]2CC[C@@H](C)[C@@](O)(O2)C(=O)C(=O)N2CCCC[C@H]2C(=O)O[C@H]([C@H](C)C[C@@H]2CC[C@@H](OC(=O)C(C)(CO)CO)[C@H](OC)C2)CC(=O)[C@H](C)/C=C(\C)[C@@H](O)[C@@H](OC)C(=O)[C@H](C)C[C@H](C)/C=C/C=C/C=C/1C` [CCI-779, rapamycin 42-ester with 3-hydroxy-2-(hydroxymethyl)-2-methylpropionic acid], the “high doses that inhibit the cells (cells somewhat resistant)” value (HCT 116 cells, CCI-779 alone) fell in the range of 5 to 10 µg/mL. The inhibition at 0.026 µg/mL (Homo sapiens, HCT-116, 72 h, HCT116 cells, 3 days, 0.026 μg/ml CCI-779 alone) was found to be 36%. The inhibition at 2.08 µg/mL (Homo sapiens, HCT-116, 72 h, HCT116 cells, 3 days, 2.08 μg/ml CCI-779 alone, read-out: inhibition of growth when administered alone) worked out at 41%. Under setting [1], the half-inhibitory concentration (IC50) is 4.3 µg/mL.
